One series deals with HIV-IIIb. In words: Antiviral assay in MT-2 cells. Conditions: Human immunodeficiency virus 1, 120 h; HIV-IIIb infected cells, 5 days, CellTiter-Glo; MT-2 or MT-4 cells not stated. The series is classed as cell-based. Here is the method:
For the antiviral assay utilizing MT-2 cells, 50 μL of 2× test concentration of 5-fold serially diluted compound in culture medium with 10% FBS was added to each well of a 96-well plate (9 concentrations) in triplicate. MT-2 cells were infected with HIV-IIIb at a multiplicity of infection (m.o.i) of 0.01 for 3 hours. Fifty microliters of infected cell suspension in culture medium with 10% FBS (˜1.5×10^4 cells) was then added to each well containing […] of diluted compound. The plates were then incubated at 37° C. for 5 days. For the antiviral assay utilizing MT-4 cells, 20 μL of 2× test concentration of 5-fold serially diluted compound in culture medium with 10% FBS was added to each well of a 384-well plate (7 concentrations) in triplicate. MT-4 cells were next mixed with HIV-IIIb at an m.o.i. of 0.1 and 20 μl of virus/cell mixture (2000 cells) was immediately added to each well containing […] of diluted compound. The plates were then incubated at 37° C. for 5 days. After 5 days of incubation, 100 μL of CellTiter-Glo™ Reagent (catalog #G7571, Promega Biosciences, Inc., Madison, Wis.) was added to each well containing MT-2 cells and 40 μL to each well containing MT-4 cells. Cell lysis was carried out by incubation at room temperature for 10 min and chemiluminescence was read.
(Cellular ATP, detected with luciferase, serves as a proxy for viable cell number.)

Data on 26 compounds can be found in US8334295B2, “Pyrimidine derivatives as HIV reverse transcriptase inhibitors” (Korea Research Institute of Chemical Technology, priority 2007, dated 2012).

As a reminder, the EC50 is the concentration giving half of the maximal effect. A low value points to an effect from little substance. As for `CCn1c(C(=O)c2cc(C)cc(C#N)c2)c(C(C)C)c(=O)[nH]c1=O` [Compound 3, 3-(3-ethyl-5-isopropyl-2,6-dioxo-1,2,3,6-tetrahydro-pyrimidine-4-carbonyl)-5-methyl-benzonitrile], the EC50 with HIV-IIIb was < 10 nM.

Turning to `Cc1cc(C#N)cc(C(=O)c2c(C(C)C)c(=O)[nH]c(=O)n2CC2CC2)c1` [Compound 5], the EC50 with HIV-IIIb is < 10 nM.

Consider `C/C=C(\Cl)Cn1c(C(=O)c2cc(C)cc(C#N)c2)c(C(C)C)c(=O)[nH]c1=O` [Compound 6], for which the EC50 in the series on HIV-IIIb is < 10 nM.

Turning to `CCOCn1c(C(=O)c2cc(C)cc(C#N)c2)c(C(C)C)c(=O)[nH]c1=O` [Compound 9], the EC50 with HIV-IIIb was < 10 nM.

The melting point is the temperature of the solid-liquid transition. For the compound `Cc1cc(C#N)cc(C(=O)c2c(C(C)C)c(=O)[nH]c(=O)n2CCCO)c1` [Compound 25], the melting point was 166 to 167 °C. Besides, in the series with HIV-IIIb, the EC50 is < 10 nM.

In turn, `CCOCn1c(C(=O)c2cc(Cl)cc(C#N)c2)c(C(C)C)c(=O)[nH]c1=O` [Compound 38] had a melting point of 162 to 164 °C. Further, in the series with HIV-IIIb, the EC50 was < 10 nM.

Compound `CCCn1c(C(=O)c2cc(C)cc(C#N)c2)c(C(C)C)c(=O)[nH]c1=O` [Compound 46] came in with a melting point of 202 to 203 °C. Moreover, the EC50 in the series on HIV-IIIb is < 10 nM.

As for `CCCCn1c(C(=O)c2cc(C)cc(C#N)c2)c(C(C)C)c(=O)[nH]c1=O` [Compound 47, 3-(3-Butyl-5-isopropyl-2,6-dioxo-1,2,3,6-tetrahydro-pyrimidine-4-carbonyl)-5-methyl-benzonitrile], in the series with HIV-IIIb, the EC50 is < 10 nM.

With `CCOCn1c(C(=O)c2cc(C)cc(C)c2)c(C(C)C)c(=O)[nH]c1=O` [Compound 54], the EC50 in the series on HIV-IIIb is < 10 nM.

As for `CCOCn1c(C(=O)c2cc(C)cc(/C=C/C#N)c2)c(C(C)C)c(=O)[nH]c1=O` [Compound 56], the EC50 in the series on HIV-IIIb was < 10 nM.

Regarding `CCOCn1c(C(F)c2cc(C)cc(C)c2)c(C(C)C)c(=O)[nH]c1=O` (centres unmarked) [Compound 57], the EC50 in the series with HIV-IIIb was < 10 nM.

In the case of `C/C=C/Cn1c(C(=O)c2cc(C)cc(C)c2)c(C(C)C)c(=O)[nH]c1=O` [Compound 60], the concentration for a half-maximal effect (EC50) with HIV-IIIb is < 10 nM.

On to `CCCCn1c(C(=O)c2cc(C)cc(C#N)c2)c(CC)c(=O)[nH]c1=O` [Compound 70], for which the melting point fell in the range of 190 to 191 °C. Besides, the concentration for a half-maximal effect (EC50) with HIV-IIIb was < 10 nM.

`Cc1cc(C=CC#N)cc(C(=O)c2c(C(C)C)c(=O)[nH]c(=O)n2CC2CC2)c1` [Compound 72, 3-[3-(3-Cyclopropylmethyl-5-isopropyl-2,6-dioxo-1,2,3,6-tetrahydro-pyrimidine-4-carbonyl)-5-methyl-phenyl]-acrylonitrile] yielded a melting point of 225 to 226 °C. The EC50 in the series with HIV-IIIb was < 10 nM.

Compound `CCn1c(C(=O)c2cc(C)cc(C=CC#N)c2)c(C(C)C)c(=O)[nH]c1=O` [Compound 73, 3-[3-(3-Ethyl-5-isopropyl-2,6-dioxo-1,2,3,6-tetrahydro-pyrimidine-4-carbonyl)-5-methyl-phenyl]-acrylonitrile] displayed a melting point of 174 to 176 °C. In addition, in the series with HIV-IIIb, the EC50 is < 10 nM.

Regarding `CCCCn1c(C(=O)c2cc(C)cc(C=CC#N)c2)c(C(C)C)c(=O)[nH]c1=O` [Compound 74, 3-[3-(3-Butyl-5-isopropyl-2,6-dioxo-1,2,3,6-tetrahydro-pyrimidine-4-carbonyl)-5-methyl-phenyl]-acrylonitrile], the melting point lay within 164 to 165 °C. In addition, the EC50 in the series with HIV-IIIb is < 10 nM.

`CCn1c(C(=O)c2cc(C)cc(CCC#N)c2)c(C(C)C)c(=O)[nH]c1=O` [Compound 75, 3-[3-(3-Ethyl-5-isopropyl-2,6-dioxo-1,2,3,6-tetrahydro-pyrimidine-4-carbonyl)-5-methyl-phenyl]-propionitrile]: the melting point was 173 to 174 °C.

The compound `CCCCn1c(C(=O)c2cc(C)cc(CCC#N)c2)c(C(C)C)c(=O)[nH]c1=O` [Compound 76, 3-[3-(3-Butyl-5-isopropyl-2,6-dioxo-1,2,3,6-tetrahydro-pyrimidine-4-carbonyl)-5-methyl-phenyl]-propionitrile] came in with a melting point of 172 to 173 °C. In the series on HIV-IIIb, the EC50 is < 10 nM.

Regarding `Cc1cc(C#N)cc(C(=O)c2c(C(C)C)c(=O)[nH]c(=O)n2C(C)C)c1` [Compound 77, 3-(3,5-Diisopropyl-2,6-dioxo-1,2,3,6-tetrahydro-pyrimidine-4-carbonyl)-5-methyl-benzonitrile], the melting point is 278 to 280 °C.

In turn, `Cc1cc(C#N)cc(C(=O)c2c(C(C)C)c(=O)[nH]c(=O)n2CC(C)C)c1` [Compound 78, 3-(3-Isobutyl-5-isopropyl-2,6-dioxo-1,2,3,6-tetrahydro-pyrimidine-4-carbonyl)-5-methyl-benzonitrile] showed a melting point of 200 to 201 °C.

The compound `C=CCCn1c(C(=O)c2cc(C)cc(C#N)c2)c(C(C)C)c(=O)[nH]c1=O` [Compound 79, 3-(3-But-3-enyl-5-isopropyl-2,6-dioxo-1,2,3,6-tetrahydro-pyrimidine-4-carbonyl)-5-methyl-benzonitrile] registered a melting point of 133 to 134 °C.

Consider `CC=CCn1c(C(=O)c2cc(C)cc(C#N)c2)c(C(C)C)c(=O)[nH]c1=O` [Compound 80, 3-(3-But-2-enyl-5-isopropyl-2,6-dioxo-1,2,3,6-tetrahydro-pyrimidine-4-carbonyl)-5-methyl-benzonitrile], for which the melting point was 177 to 178 °C. For the same compound, the EC50 with HIV-IIIb is < 10 nM.

Compound `Cc1cc(C#N)cc(C(=O)c2c(C(C)C)c(=O)[nH]c(=O)n2CC2(CC(N)=O)CC2)c1` [Compound 85, 2-{1-[6-(3-Cyano-5-methyl-benzoyl)-5-isopropyl-2,4-dioxo-3,4-dihydro-2H-pyrimidin-1-ylmethyl]-cyclopropyl}-acetamide] yielded a melting point of 283 to 285 °C.

In turn, `CCn1c(C(C#N)c2cc(C)cc(C#N)c2)c(C(C)C)c(=O)[nH]c1=O` (centres unmarked) [Compound 85, 3-[Cyano-(3-ethyl-5-isopropyl-2,6-dioxo-1,2,3,6-tetrahydro-pyrimidin-4-yl)-methyl]-5-methyl-benzonitrile] displayed a melting point of 260 to 261 °C.

`Cc1cc(C#N)cc(C(=O)c2c(C(C)C)c(=O)[nH]c(=O)n2CCOC(N)=O)c1` [Compound 86, Carbamic acid 2-[6-(3-cyano-5-methyl-benzoyl)-5-isopropyl-2,4-dioxo-3,4-dihydro-2H-pyrimidin-1-yl]-ethyl ester]: the EC50 in the series on HIV-IIIb was < 10 nM.

Consider `CC=CCn1c(Oc2cc(C)cc(C)c2)c(C(C)C)c(=O)[nH]c1=O` [Compound 115, 1-But-2-enyl-6-(3,5-dimethyl-phenoxy)-5-isopropyl-1H-pyrimidine-2,4-dione], for which the EC50 with HIV-IIIb is < 10 nM.
